Source: ChEMBL document CHEMBL1667806, “Synthesis and evaluation of anti-tubercular activity of new dithiocarbamate sugar derivatives” (2011)
In brackets after ≈: the same amount, converted by molar mass.

Key:
Assay type in all cases: functional
[1] = system: Mycobacterium tuberculosis; assay: Antimycobacterial activity against INH, RFP, EB, LVFX, SPFX, CPFX-resistant Mycobacterium tuberculosis isolate 1
[2] = system: Mycobacterium tuberculosis; assay: Antimycobacterial activity against INH, RFP, EB, LVFX, SPFX, CPFX-resistant Mycobacterium tuberculosis isolate 2
[3] = system: Mycobacterium tuberculosis; assay: Antimycobacterial activity against RFP, EB-resistant Mycobacterium tuberculosis isolate 3
[4] = system: Mycobacterium tuberculosis; assay: Antimycobacterial activity against INH, RFP, EB, LVFX, CPFX-resistant Mycobacterium tuberculosis isolate 4
[5] = system: Mycobacterium tuberculosis; assay: Antimycobacterial activity against INH, RFP, EB, KM, LVFX, SPFX, CPFX-resistant Mycobacterium tuberculosis isolate 5
[6] = system: Mycobacterium tuberculosis; assay: Antimycobacterial activity against INH, RFP, SM, EB, KM, LVFX, SPFX, CPFX-resistant Mycobacterium tuberculosis isolate 6
[7] = system: Mycobacterium tuberculosis; assay: Antimycobacterial activity against RFP-resistant Mycobacterium tuberculosis isolate 7
[8] = system: Mycobacterium tuberculosis; assay: Antimycobacterial activity against RFP-resistant Mycobacterium tuberculosis isolate 8
[9] = system: Mycobacterium tuberculosis; assay: Antimycobacterial activity against INH, RFP, KM, LVFX, SPFX, CPFX-resistant Mycobacterium tuberculosis isolate 9
[10] = system: Mycobacterium tuberculosis; assay: Antimycobacterial activity against RFP-resistant Mycobacterium tuberculosis isolate 10
[11] = system: Mycobacterium tuberculosis; assay: Antimycobacterial activity against INH, RFP, EB, KM, LVFX, SPFX, CPFX-resistant Mycobacterium tuberculosis isolate 11
[12] = system: Mycobacterium tuberculosis; assay: Antimycobacterial activity against INH, RFP, EB-resistant Mycobacterium tuberculosis isolate 12
[13] = system: Mycobacterium tuberculosis; assay: Antimycobacterial activity against INH, RFP, SM, EB-resistant Mycobacterium tuberculosis isolate 13
[14] = system: Mycobacterium tuberculosis; assay: Antimycobacterial activity against INH, RFP, EB-resistant Mycobacterium tuberculosis isolate 14
[15] = system: Mycobacterium tuberculosis; assay: Antimycobacterial activity against INH, RFP, EB, LVFX, SPFX, CPFX-resistant Mycobacterium tuberculosis isolate 15
[16] = system: Mycobacterium tuberculosis; assay: Antimycobacterial activity against INH, RFP, SM, EB, KM, PAS, EVM, LVFX-resistant Mycobacterium tuberculosis isolate 16
[17] = system: Mycobacterium tuberculosis; assay: Antimycobacterial activity against INH, RFP-resistant Mycobacterium tuberculosis isolate 17
[18] = system: Mycobacterium tuberculosis; assay: Antimycobacterial activity against INH, RFP, SM, EB, PAS-resistant Mycobacterium tuberculosis isolate 18
[19] = system: Mycobacterium tuberculosis; assay: Antimycobacterial activity against INH, RFP, SM, EB, PAS, LVFX-resistant Mycobacterium tuberculosis isolate 19
[20] = system: Mycobacterium tuberculosis; assay: Antimycobacterial activity against INH, RFP, ETH-resistant Mycobacterium tuberculosis isolate 20

SMILES | MIC [1] [µg/mL] | MIC [2] [µg/mL] | MIC [3] [µg/mL] | MIC [4] [µg/mL] | MIC [5] [µg/mL] | MIC [6] [µg/mL] | MIC [7] [µg/mL] | MIC [8] [µg/mL] | MIC [9] [µg/mL] | MIC [10] [µg/mL] | MIC [11] [µg/mL] | MIC [12] [µg/mL] | MIC [13] [µg/mL] | MIC [14] [µg/mL] | MIC [15] [µg/mL] | MIC [16] [µg/mL] | MIC [17] [µg/mL] | MIC [18] [µg/mL] | MIC [19] [µg/mL] | MIC [20] [µg/mL]
N.S=C(S)N1CCCC1 [PYRROLIDINE DITHIOCARBAMIC ACID, AMMONIUM SALT] | 0.2 | 0.2 | 0.2 | 0.4 | 0.2 | 0.2 | 0.2 | 0.2 | 0.2 | 0.4 | 0.2 | 0.2 | 0.2 | 0.2 | 0.2 | 0.2 | 0.2 | 0.2 | 0.4 | 0.2
CC(=O)N[C@@H]1[C@@H](O)[C@H](O)[C@@H](CO)O[C@H]1SC(=S)N1CCCC1 | 6.25 (≈ 17.8 µM) | 6.25 (≈ 17.8 µM) | 6.25 (≈ 17.8 µM) | 12.5 (≈ 35.7 µM) | 6.25 (≈ 17.8 µM) | 6.25 (≈ 17.8 µM) | 6.25 (≈ 17.8 µM) | 6.25 (≈ 17.8 µM) | 6.25 (≈ 17.8 µM) | 12.5 (≈ 35.7 µM) | 12.5 (≈ 35.7 µM) | 6.25 (≈ 17.8 µM) | 6.25 (≈ 17.8 µM) | 6.25 (≈ 17.8 µM) | 6.25 (≈ 17.8 µM) | 6.25 (≈ 17.8 µM) | 6.25 (≈ 17.8 µM) | 6.25 (≈ 17.8 µM) | 12.5 (≈ 35.7 µM) | 6.25 (≈ 17.8 µM)
